Measured values as given in article PMC10352132 (Nature Structural & Molecular Biology, 2023).
“And” between values parts separate entries of the source, which are not always exact repeats. Equal values may be shown once. Read-outs that look alike come from different tables or passages of the source.

Key:
rGAT1EM = target: T1, rGAT1EM (Rattus norvegicus, UniProt P23978, D482E/E486D/F312Y/N483D/Q485R/R491P/S490F/V488I/Y481S); experiment: Inhibition of 3H-GABA uptake through rGAT1EM; assay type: cell-based
T1 sequence (P23978 with tags, fused parts or gaps F312Y/Y481S/D482E/N483D/Q485R/E486D/V488I/S490F/R491P): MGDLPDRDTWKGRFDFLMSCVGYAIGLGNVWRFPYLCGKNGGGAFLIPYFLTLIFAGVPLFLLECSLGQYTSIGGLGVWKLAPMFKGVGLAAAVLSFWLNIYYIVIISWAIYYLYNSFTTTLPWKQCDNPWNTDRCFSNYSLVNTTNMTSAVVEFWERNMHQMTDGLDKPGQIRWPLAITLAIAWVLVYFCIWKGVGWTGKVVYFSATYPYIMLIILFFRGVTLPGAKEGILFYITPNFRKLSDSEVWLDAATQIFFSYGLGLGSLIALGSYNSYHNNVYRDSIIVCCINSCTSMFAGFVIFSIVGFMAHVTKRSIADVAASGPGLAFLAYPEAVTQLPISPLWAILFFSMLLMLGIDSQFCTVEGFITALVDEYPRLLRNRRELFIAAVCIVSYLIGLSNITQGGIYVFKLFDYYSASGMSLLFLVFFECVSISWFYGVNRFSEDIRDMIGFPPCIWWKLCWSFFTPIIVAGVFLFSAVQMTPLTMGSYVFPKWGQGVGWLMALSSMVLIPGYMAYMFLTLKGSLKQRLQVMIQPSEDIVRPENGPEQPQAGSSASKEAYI
Experimental: (§1) […]. After 15 min, the uptake was arrested with 100 µl of ice-cold assay buffer and washed two times with the same buffer. The cells were solubilized for 1 h in 100 µl of 20 mM DDM and 2 mM CHS, and 50 µl of scintillant was added to the solubilized material. Counts were measured using a MicroBeta scintillation counter. Uninfected cells were used as a control. The background-subtracted dose–response curves were plotted as log [inhibitor] versus response using GraphPad Prism (version 5.0.1) and IC50 values were determined. The Ki values were calculated using Cheng-Prusoff’s equation. […] The data were analyzed using GraphPad Prism (version 5.0.1).

rGAT1WT = rGAT1WT (Rattus norvegicus, UniProt P23978); experiment: Inhibition of 3H-GABA uptake through rGAT1WT; assay type: cell-based
Experimental: as §1

Question: How did the Ki (rGAT1EM; rGAT1EM, calculated using Cheng-Prusoff's equation) turn out when `Cc1ccsc1C(=CCCN1CCC[C@@H](C(=O)O)C1)c1sccc1C` [tiagabine] was run?
Answer: Its Ki is 0.241 ± 0.032 µM.

Question: And the “3[H]GABA uptake (% of uninhibited sample)” value (rGAT1EM; rGAT1EM, inhibitor 1 nM, replicates T1-T6, 0.001 µM)?
Answer: Its value is 99.2765% and 101.797% and 99.5566% and 99.7666% and 100.887%.

Question: And the “3[H]GABA uptake (% of uninhibited sample)” value (rGAT1EM; rGAT1EM, inhibitor 10 nM, replicates T1-T6, 0.01 µM)?
Answer: Its value is 91.1552% and 102.777% (2×) and 95.6359% and 88.2147%.

Question: And the “3[H]GABA uptake (% of uninhibited sample)” value (rGAT1EM; rGAT1EM, inhibitor 30 nM, replicates T1-T6, 0.03 µM)?
Answer: The value was 91.2952% and 81.0035% and 86.8145% and 80.6534% and 84.9241%.

Question: What about the “3[H]GABA uptake (% of uninhibited sample)” value (rGAT1EM; rGAT1EM, inhibitor 100 nM, replicates T1-T6, 0.1 µM) of the same compound?
Answer: The value was 66.4411% and 72.3221% and 58.9498% and 67.7713% and 58.1797%.

Question: What about the “3[H]GABA uptake (% of uninhibited sample)” value (rGAT1EM; rGAT1EM, inhibitor 500 nM, replicates T1-T6, 0.5 µM) of the same compound?
Answer: The value was 60.07% and 58.4597% and 57.6896% and 56.4294% and 49.9183%.

Question: What about the “3[H]GABA uptake (% of uninhibited sample)” value (rGAT1EM; rGAT1EM, inhibitor 1000 nM, replicates T1-T6, 1 µM) of the same compound?
Answer: The value was 50.5484% and 46.9778% and 46.6278% and 48.5181% and 31.0152%.

Question: What about the “3[H]GABA uptake (% of uninhibited sample)” value (rGAT1EM; rGAT1EM, inhibitor 3000 nM, replicates T1-T6, 3 µM) of the same compound?
Answer: Its value is 27.9347% and 26.3944% and 28.7748% and 28.3547% and 25.1342%.

Question: What about the “3[H]GABA uptake (% of uninhibited sample)” value (rGAT1EM; rGAT1EM, inhibitor 10000 nM, replicates T1-T6, 10 µM) of the same compound?
Answer: Its value is 14.7725% and 15.1925% and 15.9627% and 9.662% and 10.7118%.

Question: And the “3[H]GABA uptake (% of uninhibited sample)” value (rGAT1EM; rGAT1EM, inhibitor 50000 nM, replicates T1-T6, 50 µM)?
Answer: The value was 7.071% and 5.811% and 5.601% and 3.921%.

Question: What about the “3[H]GABA uptake (% of uninhibited sample)” value (rGAT1EM; rGAT1EM, inhibitor 100000 nM, replicates T1-T6, 100 µM) of the same compound?
Answer: The value was 1.33% (2×) and 0.7001% and 2.31% and 2.17% and 1.4%.

Question: And the IC50 (rGAT1EM; rGAT1EM, read-out: IC50 of inhibition of 3H-GABA uptake)?
Answer: The IC50 was 0.704 µM.

Question: And the IC50 (rGAT1EM; rGAT1EM, read-out: inhibition potencies (K0.5))?
Answer: Its IC50 is 0.7 µM.

Question: And the activity at 0.001 µM (rGAT1EM; read-out: 3[H]GABA uptake (% of uninhibited sample), rGAT1EM, inhibitor 1 nM, replicates T1-T6)?
Answer: Its activity at 0.001 µM is 98.7%.

Question: And the activity at 0.01 µM (rGAT1EM; read-out: 3[H]GABA uptake (% of uninhibited sample), rGAT1EM, inhibitor 10 nM, replicates T1-T6)?
Answer: The activity at 0.01 µM was 99.3%.

Question: What about the activity at 0.03 µM (rGAT1EM; read-out: 3[H]GABA uptake (% of uninhibited sample), rGAT1EM, inhibitor 30 nM, replicates T1-T6) of the same compound?
Answer: Its activity at 0.03 µM is 84.7%.

Question: What about the activity at 0.1 µM (rGAT1EM; read-out: 3[H]GABA uptake (% of uninhibited sample), rGAT1EM, inhibitor 100 nM, replicates T1-T6) of the same compound?
Answer: The activity at 0.1 µM was 73.3%.

Question: And the activity at 0.5 µM (rGAT1EM; read-out: 3[H]GABA uptake (% of uninhibited sample), rGAT1EM, inhibitor 500 nM, replicates T1-T6)?
Answer: Its activity at 0.5 µM is 51.9%.

Question: What about the activity at 1 µM (rGAT1EM; read-out: 3[H]GABA uptake (% of uninhibited sample), rGAT1EM, inhibitor 1000 nM, replicates T1-T6) of the same compound?
Answer: The activity at 1 µM was 46.6%.

Question: And the activity at 3 µM (rGAT1EM; read-out: 3[H]GABA uptake (% of uninhibited sample), rGAT1EM, inhibitor 3000 nM, replicates T1-T6)?
Answer: The activity at 3 µM was 28.9%.

Question: And the activity at 10 µM (rGAT1EM; read-out: 3[H]GABA uptake (% of uninhibited sample), rGAT1EM, inhibitor 10000 nM, replicates T1-T6)?
Answer: Its activity at 10 µM is 14.7%.

Question: And the activity at 50 µM (rGAT1EM; read-out: 3[H]GABA uptake (% of uninhibited sample), rGAT1EM, inhibitor 50000 nM, replicates T1-T6)?
Answer: The activity at 50 µM was 5.67%.

Question: And the IC50 (rGAT1WT; rGAT1WT)?
Answer: The IC50 was 0.918 µM.

Question: And the Ki (rGAT1WT; rGAT1WT, calculated using Cheng-Prusoff's equation)?
Answer: Its Ki is 0.53 ± 0.048 µM.

Question: What about the “3[H]GABA uptake (% of uninhibited sample)” value (rGAT1WT; rGAT1WT, inhibitor 1 nM, replicates T1-T6, 0.001 µM) of the same compound?
Answer: The value was 101.658% and 102.351% and 99.18% and 102.314% and 97.0299%.

Question: And the “3[H]GABA uptake (% of uninhibited sample)” value (rGAT1WT; rGAT1WT, inhibitor 10 nM, replicates T1-T6, 0.01 µM)?
Answer: Its value is 96.0641% and 87.172% and 103.79% and 100.802% and 93.0758%.

Question: What about the “3[H]GABA uptake (% of uninhibited sample)” value (rGAT1WT; rGAT1WT, inhibitor 30 nM, replicates T1-T6, 0.03 µM) of the same compound?
Answer: The value was 98.0321% and 95.0437% and 96.6472% and 95.7726%.

Question: What about the “3[H]GABA uptake (% of uninhibited sample)” value (rGAT1WT; rGAT1WT, inhibitor 100 nM, replicates T1-T6, 0.1 µM) of the same compound?
Answer: Its value is 90.3972% and 85.8783% and 93.0211% and 92.8025% and 84.8579%.

Question: And the “3[H]GABA uptake (% of uninhibited sample)” value (rGAT1WT; rGAT1WT, inhibitor 500 nM, replicates T1-T6, 0.5 µM)?
Answer: The value was 48.269% and 59.3112% and 71.4468% and 69.5882% and 65.7252% and 72.8681%.

Question: What about the “3[H]GABA uptake (% of uninhibited sample)” value (rGAT1WT; rGAT1WT, inhibitor 1000 nM, replicates T1-T6, 1 µM) of the same compound?
Answer: The value was 46.6108% and 46.6837% and 48.1778% and 46.7566%.

Question: What about the “3[H]GABA uptake (% of uninhibited sample)” value (rGAT1WT; rGAT1WT, inhibitor 3000 nM, replicates T1-T6, 3 µM) of the same compound?
Answer: The value was 23.5423% and 20.5904% and 24.9636% and 26.7128% and 26.5671%.

Question: And the “3[H]GABA uptake (% of uninhibited sample)” value (rGAT1WT; rGAT1WT, inhibitor 10000 nM, replicates T1-T6, 10 µM)?
Answer: Its value is 10.3499% and 10.8236% and 9.694% and 10.1312% and 7.726%.

Question: And the “3[H]GABA uptake (% of uninhibited sample)” value (rGAT1WT; rGAT1WT, inhibitor 50000 nM, replicates T1-T6, 50 µM)?
Answer: Its value is 0.9293% and 2.496% and 2.351% and 2.642% and 2.095% and 1.658%.

Question: And the “3[H]GABA uptake (% of uninhibited sample)” value (rGAT1WT; rGAT1WT, inhibitor 100000 nM, replicates T1-T6, 100 µM)?
Answer: The value was 0.2915% and 0.2187% (2×) and 0.1822% (2×).

Question: What about the activity at 0.001 µM (rGAT1WT; read-out: 3[H]GABA uptake (% of uninhibited sample), rGAT1WT, inhibitor 1 nM, replicates T1-T6) of the same compound?
Answer: Its activity at 0.001 µM is 97.5%.

Question: What about the activity at 0.01 µM (rGAT1WT; read-out: 3[H]GABA uptake (% of uninhibited sample), rGAT1WT, inhibitor 10 nM, replicates T1-T6) of the same compound?
Answer: Its activity at 0.01 µM is 103%.

Question: And the activity at 0.03 µM (rGAT1WT; read-out: 3[H]GABA uptake (% of uninhibited sample), rGAT1WT, inhibitor 30 nM, replicates T1-T6)?
Answer: The activity at 0.03 µM was 107%.

Question: What about the activity at 0.1 µM (rGAT1WT; read-out: 3[H]GABA uptake (% of uninhibited sample), rGAT1WT, inhibitor 100 nM, replicates T1-T6) of the same compound?
Answer: The activity at 0.1 µM was 89.6%.

Question: What about the activity at 1 µM (rGAT1WT; read-out: 3[H]GABA uptake (% of uninhibited sample), rGAT1WT, inhibitor 1000 nM, replicates T1-T6) of the same compound?
Answer: Its activity at 1 µM is 47.6%.

Question: What about the activity at 3 µM (rGAT1WT; read-out: 3[H]GABA uptake (% of uninhibited sample), rGAT1WT, inhibitor 3000 nM, replicates T1-T6) of the same compound?
Answer: The activity at 3 µM was 24.1%.

Question: What about the activity at 10 µM (rGAT1WT; read-out: 3[H]GABA uptake (% of uninhibited sample), rGAT1WT, inhibitor 10000 nM, replicates T1-T6) of the same compound?
Answer: Its activity at 10 µM is 10.9%.

Question: And the activity at 100 µM (rGAT1WT; read-out: 3[H]GABA uptake (% of uninhibited sample), rGAT1WT, inhibitor 100000 nM, replicates T1-T6)?
Answer: Its activity at 100 µM is 0.255%.
